# Test results reported in ChEMBL document CHEMBL1201862, “PubChem BioAssay data set” (2004).
# Activity calls are given as the source filed them.
# How the values were obtained:
# [1] = general mammalian cell viability loss – activator set, cherry-pick, cytotoxicity control for miR-122 modulator project, dose response (AID 720690); type: functional, cell-based;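 further: HEK293T human cells scored for general mammalian cytotoxicity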
# [2] = activation of miR-122 Renilla sensor silencing – cell-based, Huh7 psiCHECK-miR122, Renilla luciferase, cherry-picked, dose response (AID 651956); type: functional;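 further: huh7 hepatoma cells stably carrying a psiCHECK-2 miR-122 sensor plasmid; renilla luciferase signal reporting endogenous miR-122 activity after 48 h compound exposure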
# [3] = biological target: Vasopressin V1a receptor (Homo sapiens, UniProt P37288); assay: Counterscreen for Oxytocin Receptor (OXTR) agonists: Fluorescence-based cell-based high throughput dose response assay to identify agonists of the vasopressin 1 receptor (V1R). [Related pubchem assays: 2435 (Primary screen (OXTR agonists in singlicate)), 434991 (Counterscreen (V1R agonists in triplicate)), 2482 (Summary (OXTR agonists)) …; type: functional
# [4] = test system: A-375; assay: MITF: Counter assay: A375 proliferation Measured in Cell-Based System Using Plate Reader - 2084-03_Inhibitor_Dose_DryPowder_Activity. [Related pubchem assays (depositor defined):AID488944]; type: functional; settings: Homo sapiens
# [5] = biological target: T1, Microphthalmia-associated transcription factor (Homo sapiens, UniProt O75030); assay: reducers of TRPM1 reporter luminescence, concentration series – cell-based, SK-MEL-5, cherry-picked, set 3, MITF inhibitor project, dose response (AID 493073); type: functional;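 further: SK-MEL-5 melanoma cells with luciferase driven by the MITF target TRPM1 promoter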
# T1 sequence (O75030 whole entry): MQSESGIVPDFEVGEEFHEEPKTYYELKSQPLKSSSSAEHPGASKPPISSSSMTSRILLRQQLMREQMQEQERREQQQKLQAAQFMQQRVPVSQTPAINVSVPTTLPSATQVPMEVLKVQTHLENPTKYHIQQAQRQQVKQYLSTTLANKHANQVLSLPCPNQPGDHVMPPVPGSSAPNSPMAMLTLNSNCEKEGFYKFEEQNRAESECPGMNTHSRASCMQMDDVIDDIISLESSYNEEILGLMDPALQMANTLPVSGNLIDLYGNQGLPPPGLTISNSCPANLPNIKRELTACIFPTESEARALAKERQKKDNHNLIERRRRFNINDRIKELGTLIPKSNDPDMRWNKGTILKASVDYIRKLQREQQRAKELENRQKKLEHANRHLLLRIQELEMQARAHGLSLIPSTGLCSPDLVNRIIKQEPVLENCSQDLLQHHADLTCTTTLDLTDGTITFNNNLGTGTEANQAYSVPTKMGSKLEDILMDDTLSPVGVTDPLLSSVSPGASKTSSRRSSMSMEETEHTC
# [6] = biological target: Oxytocin receptor (Homo sapiens, UniProt P30559); assay: Fluorescence-based cell-based high throughput dose response assay for agonists of the Oxytocin Receptor (OXTR). [Related pubchem assays: 2435 (Primary screen (OXTR agonists in singlicate)), 434991 (Counterscreen (V1R agonists in triplicate)), 2482 (Summary (OXTR agonists)), 434963 (Confirmation screen (OXTR agonists in triplicate))]; type: functional
# [7] = biological target: T2, Tyrosine-protein phosphatase non-receptor type 7 (Homo sapiens, UniProt P35236); assay: SAR analysis of chemical inhibitors of HePTP using a Fluorescent assay - Set 2. [Related pubchem assays (depositor defined):AID1059, AID1077, AID1661, AID2085, AID521]; type: functional
# T2 sequence (P35236 whole entry): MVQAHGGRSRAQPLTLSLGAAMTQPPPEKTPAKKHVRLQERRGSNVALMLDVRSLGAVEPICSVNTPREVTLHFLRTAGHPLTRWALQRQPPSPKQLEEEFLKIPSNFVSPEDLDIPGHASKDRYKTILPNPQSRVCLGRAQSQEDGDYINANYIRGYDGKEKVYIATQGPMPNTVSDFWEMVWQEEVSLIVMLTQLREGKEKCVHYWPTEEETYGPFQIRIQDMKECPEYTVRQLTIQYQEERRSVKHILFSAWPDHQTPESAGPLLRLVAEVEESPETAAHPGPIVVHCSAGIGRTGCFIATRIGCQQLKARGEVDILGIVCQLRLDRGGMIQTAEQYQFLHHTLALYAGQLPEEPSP
# [8] = biological target: Dual specificity protein phosphatase 3 (Homo sapiens, UniProt P51452); assay: SAR VHR1 Fluorescent Assay for In Vitro dose response studies Set 2. [Related pubchem assays (depositor defined):AID1654, AID1661, AID1878]; type: functional
# [9] = biological target: T3, Bcl-2-related protein A1 (Mus musculus, UniProt Q07440); assay: Bfl-1 binding inhibitors, SAR follow-up, biochemical, fluorescence polarization (AID 1070)
# T3 sequence (Q07440 whole entry): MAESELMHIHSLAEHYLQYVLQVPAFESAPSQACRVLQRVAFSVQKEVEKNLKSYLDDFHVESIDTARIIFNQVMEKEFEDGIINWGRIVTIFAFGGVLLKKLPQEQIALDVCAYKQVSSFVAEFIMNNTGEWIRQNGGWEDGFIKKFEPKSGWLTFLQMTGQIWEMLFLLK
# [10] = biological target: T3, Bcl-2-related protein A1; assay: small-molecule antagonists of Bfl-1/BH3 interaction – biochemical, TR-FRET, mouse Bfl-1, confirmation (AID 621);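 further: TR-FRET binding of GST-Bfl-1 to FITC-labelled Bid peptide via terbium antibody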
# [11] = biological target: Glyceraldehyde-3-phosphate dehydrogenase (Homo sapiens, UniProt P04406)
# [12] = biological target: T4, Hexokinase HKDC1 (Homo sapiens, UniProt Q2TB90); assay: inhibition of HKDC1 glucose phosphorylation – biochemical, W721R variant, dose response (AID 504729); type: functional
# T4 sequence (Q2TB90 whole entry): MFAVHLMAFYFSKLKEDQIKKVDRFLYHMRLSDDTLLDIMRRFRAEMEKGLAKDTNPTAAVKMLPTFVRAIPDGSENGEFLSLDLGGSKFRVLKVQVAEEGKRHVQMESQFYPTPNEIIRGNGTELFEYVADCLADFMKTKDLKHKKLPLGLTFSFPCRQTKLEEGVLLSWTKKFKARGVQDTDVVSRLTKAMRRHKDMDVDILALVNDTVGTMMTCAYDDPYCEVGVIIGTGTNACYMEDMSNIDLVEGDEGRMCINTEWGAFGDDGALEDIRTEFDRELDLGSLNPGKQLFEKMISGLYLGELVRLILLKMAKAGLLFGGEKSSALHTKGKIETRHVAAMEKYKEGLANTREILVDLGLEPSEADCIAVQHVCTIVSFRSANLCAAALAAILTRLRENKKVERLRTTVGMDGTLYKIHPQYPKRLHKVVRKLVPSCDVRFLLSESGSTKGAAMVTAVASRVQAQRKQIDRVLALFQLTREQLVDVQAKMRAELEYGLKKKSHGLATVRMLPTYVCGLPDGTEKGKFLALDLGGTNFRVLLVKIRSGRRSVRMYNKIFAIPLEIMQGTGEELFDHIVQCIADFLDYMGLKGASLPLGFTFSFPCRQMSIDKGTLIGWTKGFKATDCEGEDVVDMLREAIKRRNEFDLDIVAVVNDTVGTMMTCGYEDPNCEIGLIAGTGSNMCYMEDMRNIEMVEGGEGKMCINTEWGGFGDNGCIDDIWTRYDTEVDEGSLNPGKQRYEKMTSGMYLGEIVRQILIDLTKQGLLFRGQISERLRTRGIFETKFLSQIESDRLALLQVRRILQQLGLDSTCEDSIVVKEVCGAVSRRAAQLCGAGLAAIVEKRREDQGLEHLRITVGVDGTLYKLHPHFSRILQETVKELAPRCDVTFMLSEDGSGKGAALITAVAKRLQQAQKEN
# [13] = test system: HT-1080; assay: HT1080 cell viability loss – fluorescence readout (AID 620); type: functional, cell-based; settings: Homo sapiens
# [14] = biological target: Luciferin 4-monooxygenase (Photinus pyralis, UniProt P08659); assay: Counter Screen for Luciferase-based Assay Positives. [Related pubchem assays: 620, 618, 411 ]
# [15] = biological target: Cytochrome P450 3A4 (Homo sapiens, UniProt P08684); settings: Potency;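 further: confirmatory qHTS run detecting inhibitors and substrates of CYP3A4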
# [16] = biological target: Aryl hydrocarbon receptor (Homo sapiens, UniProt P35869); assay: Luminescence-based cell-based high throughput dose response assay for activators of the Aryl Hydrocarbon Receptor (AHR). [Related pubchem assays: 2796 (Primary screen (AHR activators in singlicate)), 2845 (Confirmation screen (AHR activators in triplicate)), 434939 (Counterscreen (PXR activators in triplicate)), 2804 (Summary (AHR activators))]; type: ADME
# [17] = test system: Streptococcus; assay: Luminescence Microorganism-Based Dose Response Follow up to Identify Compounds Cytotoxic to Streptococcus. [Related pubchem assays: 1677 (Project Summary), 1915, 1914, 1902 (Retest at Dose), 1900 (Counter Screen), 1662 (Primary HTS)]; type: functional, organism-based
# [18] = alpha-synuclein stem-loop luciferase translation blockers – H4 neuroglioma cells, luminescence, confirmation (AID 1988); type: functional, cell-based
# [19] = luciferase reporter signal suppression in cells – H4 neuroglioma cells, luminescence, dose response (AID 1990); type: functional, cell-based
# [20] = Luminescence Cell-Based Dose Response HTS to Identify Inhibitors of 5'UTR Stem-Loop Driven Prion Protein mRNA Translation in H4 Neuroglioblastoma Cells. [Related pubchem assays: 1827 (Project Summary), 1813 (Primary HTS)]; type: functional
# [21] = M. tuberculosis growth inhibition, HTS (AID 449762); type: functional
# [22] = microbe, parasite or virus in culture; type: functional; settings: Mycobacterium tuberculosis
# [23] = viability of uninfected HEp-2 cells – cell-based, HTS, cytotoxicity control for RSV inhibitor project, dose response (AID 2410); type: functional; settings: human respiratory syncytial virus
# [24] = cells
# [25] = biological target: T5, Streptokinase A (Streptococcus pyogenes serotype M1, UniProt P10520); assay: viability-normalized secreted streptokinase activity reduction – plasminogen activation absorbance, OD405, dose response (AID 1914); type: functional, Streptococcus pyogenes M1 GAS;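 further: secreted streptokinase activity via plasminogen activation per viability signal from cell pellet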
# T5 sequence (P10520 whole entry): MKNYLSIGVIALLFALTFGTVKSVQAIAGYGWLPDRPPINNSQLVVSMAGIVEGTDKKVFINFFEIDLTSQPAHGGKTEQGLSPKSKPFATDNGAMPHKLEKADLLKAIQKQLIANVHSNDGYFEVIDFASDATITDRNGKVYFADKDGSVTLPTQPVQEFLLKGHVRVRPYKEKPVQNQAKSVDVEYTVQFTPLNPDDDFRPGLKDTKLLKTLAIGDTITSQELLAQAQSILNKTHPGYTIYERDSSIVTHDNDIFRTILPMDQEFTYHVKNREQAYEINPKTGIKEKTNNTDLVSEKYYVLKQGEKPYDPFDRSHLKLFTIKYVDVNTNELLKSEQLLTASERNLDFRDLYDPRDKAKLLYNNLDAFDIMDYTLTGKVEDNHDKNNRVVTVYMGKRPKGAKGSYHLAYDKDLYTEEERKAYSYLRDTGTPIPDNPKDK
# [26] = test system: Streptococcus; assay: GAS UMAA2166 growth inhibition – luminescence, BacTiterGlo, counter-screen for streptokinase expression inhibitor project, dose response (AID 1915); type: functional, organism-based;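 further: potency for reduction of bacterial viability or growth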
# [27] = test system: Streptococcus sp. 'group A'; assay: Streptococcus pyogenes SK(-)GAS viability under kanamycin – luminescence, BacTiterGlo, confirmation, counter-screen for streptokinase expression inhibitor project, dose response (AID 1900); type: functional, organism-based
# [28] = biological target: T6, Estrogen receptor beta (Homo sapiens, UniProt Q92731); assay: blockers of SRC-3 recruitment to ERβ – biochemical, ELISA, streptavidin-HRP readout, orthogonal assay, confirmation (AID 1060)
# [29] = biological target: Estrogen receptor (Homo sapiens, UniProt P03372);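 further: potency for inhibiting coactivator peptide recruitment to the receptor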
# [30] = biological target: T6, Estrogen receptor beta
# T6 sequence (Q92731 whole entry): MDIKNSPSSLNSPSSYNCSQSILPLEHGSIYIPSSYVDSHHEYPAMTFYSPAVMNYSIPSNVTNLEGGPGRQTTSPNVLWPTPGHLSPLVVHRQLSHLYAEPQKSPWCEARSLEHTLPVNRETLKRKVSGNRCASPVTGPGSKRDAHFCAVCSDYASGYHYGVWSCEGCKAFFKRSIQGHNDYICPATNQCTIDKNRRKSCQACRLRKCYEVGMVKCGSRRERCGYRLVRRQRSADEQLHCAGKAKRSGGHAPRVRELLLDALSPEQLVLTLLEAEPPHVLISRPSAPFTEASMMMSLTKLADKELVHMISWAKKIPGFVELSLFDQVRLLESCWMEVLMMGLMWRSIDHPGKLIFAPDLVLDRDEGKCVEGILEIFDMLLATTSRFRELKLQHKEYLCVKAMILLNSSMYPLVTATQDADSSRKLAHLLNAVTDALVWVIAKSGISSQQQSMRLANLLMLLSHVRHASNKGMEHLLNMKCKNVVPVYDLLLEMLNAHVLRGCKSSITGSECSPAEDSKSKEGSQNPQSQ
# Sequence of Aryl hydrocarbon receptor (P35869 whole entry): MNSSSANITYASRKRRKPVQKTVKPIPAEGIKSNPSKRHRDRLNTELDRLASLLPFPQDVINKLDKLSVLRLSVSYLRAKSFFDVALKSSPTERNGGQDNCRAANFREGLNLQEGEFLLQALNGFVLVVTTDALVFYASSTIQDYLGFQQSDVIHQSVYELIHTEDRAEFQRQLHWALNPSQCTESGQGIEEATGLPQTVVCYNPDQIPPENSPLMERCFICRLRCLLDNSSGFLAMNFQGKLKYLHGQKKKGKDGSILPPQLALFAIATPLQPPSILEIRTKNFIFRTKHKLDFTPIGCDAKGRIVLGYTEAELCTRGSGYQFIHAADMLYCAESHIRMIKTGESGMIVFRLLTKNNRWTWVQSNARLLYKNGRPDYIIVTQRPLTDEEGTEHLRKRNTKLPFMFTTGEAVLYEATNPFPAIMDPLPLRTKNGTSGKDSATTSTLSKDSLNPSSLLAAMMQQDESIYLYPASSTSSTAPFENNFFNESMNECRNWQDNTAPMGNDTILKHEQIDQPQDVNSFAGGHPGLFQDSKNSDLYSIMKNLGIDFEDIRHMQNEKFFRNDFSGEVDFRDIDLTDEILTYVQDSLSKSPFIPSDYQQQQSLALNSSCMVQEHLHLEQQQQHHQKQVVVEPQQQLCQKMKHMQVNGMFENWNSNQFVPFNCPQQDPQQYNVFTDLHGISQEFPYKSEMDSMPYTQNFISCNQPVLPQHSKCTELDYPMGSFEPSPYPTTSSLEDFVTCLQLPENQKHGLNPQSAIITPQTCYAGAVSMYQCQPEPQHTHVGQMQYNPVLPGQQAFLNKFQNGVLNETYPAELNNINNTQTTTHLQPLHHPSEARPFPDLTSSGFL
# Sequence of Glyceraldehyde-3-phosphate dehydrogenase (P04406 whole entry): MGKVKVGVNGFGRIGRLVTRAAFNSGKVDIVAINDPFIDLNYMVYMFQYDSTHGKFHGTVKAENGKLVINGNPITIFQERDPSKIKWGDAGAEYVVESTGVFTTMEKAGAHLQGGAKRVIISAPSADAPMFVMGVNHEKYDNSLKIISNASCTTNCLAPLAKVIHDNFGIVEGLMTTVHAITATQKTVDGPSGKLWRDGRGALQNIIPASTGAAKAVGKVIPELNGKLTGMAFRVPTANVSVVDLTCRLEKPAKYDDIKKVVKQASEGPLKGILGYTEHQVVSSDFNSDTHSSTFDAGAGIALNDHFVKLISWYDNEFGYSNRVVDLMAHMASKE
# Sequence of Cytochrome P450 3A4 (P08684 whole entry): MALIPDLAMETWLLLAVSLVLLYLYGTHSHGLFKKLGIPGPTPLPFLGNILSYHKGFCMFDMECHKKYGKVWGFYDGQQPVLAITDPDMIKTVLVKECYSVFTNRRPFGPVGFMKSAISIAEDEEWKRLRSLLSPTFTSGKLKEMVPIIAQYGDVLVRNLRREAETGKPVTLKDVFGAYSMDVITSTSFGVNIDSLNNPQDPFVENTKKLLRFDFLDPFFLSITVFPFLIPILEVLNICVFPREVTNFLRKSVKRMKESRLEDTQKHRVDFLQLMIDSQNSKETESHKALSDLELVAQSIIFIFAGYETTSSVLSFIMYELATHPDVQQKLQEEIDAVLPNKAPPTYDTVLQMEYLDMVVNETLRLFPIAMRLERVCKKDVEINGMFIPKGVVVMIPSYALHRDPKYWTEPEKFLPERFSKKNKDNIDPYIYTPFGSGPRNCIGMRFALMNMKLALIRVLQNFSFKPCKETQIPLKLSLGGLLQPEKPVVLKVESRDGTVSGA
# Sequence of Luciferin 4-monooxygenase (P08659 whole entry): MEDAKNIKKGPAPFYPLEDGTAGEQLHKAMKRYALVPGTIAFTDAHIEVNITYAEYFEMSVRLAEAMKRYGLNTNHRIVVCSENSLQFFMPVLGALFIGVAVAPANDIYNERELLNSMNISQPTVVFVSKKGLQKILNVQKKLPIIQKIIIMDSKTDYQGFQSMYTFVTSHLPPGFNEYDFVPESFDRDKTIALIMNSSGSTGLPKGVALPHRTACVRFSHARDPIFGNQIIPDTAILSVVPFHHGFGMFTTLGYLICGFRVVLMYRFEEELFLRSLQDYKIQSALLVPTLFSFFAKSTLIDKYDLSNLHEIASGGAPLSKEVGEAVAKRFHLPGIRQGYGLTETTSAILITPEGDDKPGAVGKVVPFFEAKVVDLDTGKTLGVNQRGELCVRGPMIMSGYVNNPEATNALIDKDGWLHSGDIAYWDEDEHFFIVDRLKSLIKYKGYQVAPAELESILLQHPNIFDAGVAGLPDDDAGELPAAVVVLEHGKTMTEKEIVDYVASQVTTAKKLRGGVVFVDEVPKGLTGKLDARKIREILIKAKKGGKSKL
# Sequence of Dual specificity protein phosphatase 3 (P51452 whole entry): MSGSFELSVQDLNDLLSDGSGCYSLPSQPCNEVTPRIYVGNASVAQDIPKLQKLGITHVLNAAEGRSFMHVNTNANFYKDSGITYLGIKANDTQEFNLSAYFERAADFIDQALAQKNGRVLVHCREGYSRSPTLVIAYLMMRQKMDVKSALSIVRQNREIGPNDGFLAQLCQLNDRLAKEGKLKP
# Sequence of Vasopressin V1a receptor (P37288 whole entry): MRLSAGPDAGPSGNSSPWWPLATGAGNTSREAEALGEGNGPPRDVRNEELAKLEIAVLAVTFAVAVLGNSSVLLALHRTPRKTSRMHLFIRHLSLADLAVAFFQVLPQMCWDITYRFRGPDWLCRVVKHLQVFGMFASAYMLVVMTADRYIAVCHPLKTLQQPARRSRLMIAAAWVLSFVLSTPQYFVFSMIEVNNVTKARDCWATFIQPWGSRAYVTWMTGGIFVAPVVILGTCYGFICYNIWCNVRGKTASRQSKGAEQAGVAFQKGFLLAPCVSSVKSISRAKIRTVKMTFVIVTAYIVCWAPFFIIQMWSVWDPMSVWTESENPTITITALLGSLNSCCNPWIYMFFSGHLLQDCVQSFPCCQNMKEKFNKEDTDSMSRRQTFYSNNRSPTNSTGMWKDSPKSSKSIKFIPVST
# Sequence of Oxytocin receptor (P30559 whole entry): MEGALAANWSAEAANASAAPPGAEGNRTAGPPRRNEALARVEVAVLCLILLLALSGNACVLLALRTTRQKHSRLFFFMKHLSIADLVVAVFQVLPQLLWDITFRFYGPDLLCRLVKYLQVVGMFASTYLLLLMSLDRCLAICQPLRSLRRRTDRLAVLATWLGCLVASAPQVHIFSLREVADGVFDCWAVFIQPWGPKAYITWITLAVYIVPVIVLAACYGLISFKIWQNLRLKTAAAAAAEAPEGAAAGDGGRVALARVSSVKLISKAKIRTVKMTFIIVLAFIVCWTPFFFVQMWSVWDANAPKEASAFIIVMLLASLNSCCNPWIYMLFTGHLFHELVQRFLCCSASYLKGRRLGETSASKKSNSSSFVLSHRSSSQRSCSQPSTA
# Sequence of Estrogen receptor (P03372 whole entry): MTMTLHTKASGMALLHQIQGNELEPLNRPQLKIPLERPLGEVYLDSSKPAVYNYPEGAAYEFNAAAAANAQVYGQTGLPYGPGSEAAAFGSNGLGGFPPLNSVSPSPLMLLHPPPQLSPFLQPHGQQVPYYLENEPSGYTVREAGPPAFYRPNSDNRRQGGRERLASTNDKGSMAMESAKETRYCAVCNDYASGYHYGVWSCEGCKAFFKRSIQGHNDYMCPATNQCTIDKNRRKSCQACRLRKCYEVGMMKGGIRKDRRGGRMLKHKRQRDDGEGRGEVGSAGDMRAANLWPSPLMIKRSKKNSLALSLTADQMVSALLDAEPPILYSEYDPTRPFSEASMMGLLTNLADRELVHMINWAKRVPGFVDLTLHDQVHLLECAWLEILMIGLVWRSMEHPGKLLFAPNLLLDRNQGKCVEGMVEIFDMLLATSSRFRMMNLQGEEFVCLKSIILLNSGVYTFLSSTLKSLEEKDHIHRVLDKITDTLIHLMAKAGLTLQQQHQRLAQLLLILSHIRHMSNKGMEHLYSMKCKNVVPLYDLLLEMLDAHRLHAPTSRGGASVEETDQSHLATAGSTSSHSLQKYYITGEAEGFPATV
smiles,measurement,setting,value
N=c1n(CC(=O)c2ccc(Br)s2)c2ccccc2n1Cc1ccccc1,AC50,[1],11.4 µM (active)
same,AC50,[2],10.9 µM (active)
same,EC50,[3],15.1 µM (not active)
same,AC50,[4],19.7 µM (active)
same,AC50,[5],7.34 µM (active)
same,EC50,[6],14.8 µM (not active)
COc1cc(C(=S)NCc2cccc(C(F)(F)F)c2)ccc1O,IC50,[7],55 µM (active)
same,IC50,[8],47 µM (active)
O=C1C(Cl)=C(N2CCN(Cc3ccccc3)CC2)C(=O)N1c1ccc(Cl)c(Cl)c1,IC50,[9],1.62 µM (active)
same,IC50,[10],1.64 µM (active)
same,IC50,[11],> 100 µM (not active)
COc1ccc(NC(=O)CSc2ccc(-c3cccnc3)nn2)c(OC)c1,IC50,[12],17.8 µM (active)
COc1ccc(-n2ncc3c(NCC(C)C)ncnc32)cc1,EC50,[13],> 50 µM (not active)
same,EC50,[14],1.17 µM (active)
CC(C)=CCOc1cc2oc(=O)ccc2cc1O [PRENYLETIN],AC50,[15],39.8 µM (inconclusive)
CC(=O)c1ccc(NC(=O)c2cc(Cl)nc3ccccc23)cc1,EC50,[16],1.66 µM (active)
Cc1ccc(C(=O)C(c2ccccc2)N2Cc3ccccc3C2=N)cc1 (stereo unspecified),EC50,[17],33.5 µM (active)
NS(=O)(=O)c1ccc(NC(=S)N2CCN(Cc3ccc(Cl)c(Cl)c3)CC2)cc1,IC50,[7],48.4 µM (active)
same,IC50,[8],> 100 µM (inactive)
same,EC50,[18],> 120 µM (not active)
same,EC50,[19],34.5 µM (active)
same,EC50,[20],> 120 µM (not active)
Cc1cc(-c2ccccc2)nc(S(C)(=O)=O)n1,IC50,[9],> 100 µM (not active)
same,IC50,[10],> 100 µM (not active)
same,IC50,[11],> 100 µM (not active)
CC(=O)Nc1ccc(OC(=O)N2CCCCC2)cc1,EC50,[13],> 50 µM (not active)
same,EC50,[14],3.67 µM (active)
CN(C)c1nc(N)nc(-c2nc3ccccc3s2)n1,EC50,[16],0.845 µM (active)
CCCCCCCC(=O)N/N=C(/C)c1c(O)cc(C)oc1=O,IC50,[21],> 100 µM (active)
same,CC50,[22],> 40 µM (active)
Cn1cnnc1Sc1cc(N2CCN(S(=O)(=O)c3ccc(Cl)c(Cl)c3)CC2)ccc1[N+](=O)[O-],CC50,[23],> 50 µM (active)
same,IC50,[24],10.7 µM (active)
CCOC(=O)CC(SP(=O)(OC)OC)C(=O)OCC (stereo unspecified),AC50,[15],25.1 µM (inconclusive)
CCN(CC)C(=S)SCC(=O)Nc1nc(-c2ccccc2)c(-c2ccccc2)o1,EC50,[25],8.54 µM (active)
same,EC50,[26],> 150 µM (not active)
same,EC50,[17],> 500 µM (not active)
same,EC50,[27],7.26 µM (active)
CC(=N)/C(C#N)=C(/O)CSc1nnc(-c2ccc(OC(F)F)cc2)o1,IC50,[28],18.6 µM (not active)
same,IC50,[29],46.6 µM (not active)
same,IC50,[30],9.26 µM (active)
Cc1ccc(/N=C/C2=C(O)C3(C)CCC2C3(C)C)cc1C (stereo unspecified),IC50,[21],> 100 µM (active)
